Assay: xn = mol fraction of the nth substance listed
Conditions: 100 kPa, Liquid; for speed of sound: Frequency=3 MHz, Single path-length method; for mass density: Vibrating tube method

OCC(O)CO [glycerol] + CCO
Conditions | mass density, 283.15 K [kg/m3] | mass density, 293.15 K [kg/m3] | mass density, 303.15 K [kg/m3] | mass density, 313.15 K [kg/m3] | speed of sound, 283.15 K [m/s] | speed of sound, 293.15 K [m/s] | speed of sound, 303.15 K [m/s] | speed of sound, 313.15 K [m/s]
x2 = 0 | 1267 | 1261 | 1255 | 1248 | 1942.3 | 1922.9 | 1901 | 1879.3
x2 = 0.0999 | 1233 | 1227 | 1220 | 1214 | 1882.1 | 1852.5 | 1827.9 | 1804.6
x2 = 0.2002 | 1199 | 1193 | 1186 | 1179 | 1804.3 | 1778.9 | 1753.4 | 1729.7
x2 = 0.2998 | 1161 | 1155 | 1148 | 1140 | 1721.8 | 1696.1 | 1671.4 | 1647.2
x2 = 0.4001 | 1120 | 1113 | 1106 | 1099 | 1639.2 | 1613.3 | 1587.9 | 1562.8
x2 = 0.4993 | 1077 | 1069 | 1062 | 1055 | 1557.7 | 1530.9 | 1504.6 | 1478.5
x2 = 0.6004 | 1029 | 1021 | 1014 | 1006 | 1476.1 | 1448.4 | 1421.1 | 1394
x2 = 0.699 | 978 | 970 | 963 | 955 | 1401.7 | 1372.8 | 1344.2 | 1315.8
x2 = 0.9002 | 862 | 854 | 845 | 837 | 1263.5 | 1231.4 | 1199.4 | 1167.7

OCC(O)CO [glycerol] + CO
Conditions | mass density, 283.15 K [kg/m3] | mass density, 293.15 K [kg/m3] | mass density, 303.15 K [kg/m3] | mass density, 313.15 K [kg/m3] | speed of sound, 283.15 K [m/s] | speed of sound, 293.15 K [m/s] | speed of sound, 303.15 K [m/s] | speed of sound, 313.15 K [m/s]
x2 = 0 | 1267 | 1261 | 1255 | 1248 | 1942.3 | 1922.9 | 1901 | 1879.3
x2 = 0.1003 | 1244 | 1238 | 1232 | 1225 | 1901.8 | 1873 | 1848.8 | 1826.1
x2 = 0.1997 | 1220 | 1213 | 1207 | 1200 | 1841.5 | 1816.1 | 1792.7 | 1770
x2 = 0.3002 | 1192 | 1186 | 1179 | 1172 | 1779.2 | 1755.3 | 1732.3 | 1709.5
x2 = 0.4011 | 1158 | 1152 | 1145 | 1138 | 1708.9 | 1684.6 | 1660.7 | 1637.1
x2 = 0.4999 | 1119 | 1112 | 1105 | 1098 | 1628.4 | 1604 | 1579.6 | 1555.3
x2 = 0.5998 | 1075 | 1068 | 1060 | 1053 | 1546.5 | 1521.1 | 1495.6 | 1470.4
x2 = 0.7 | 1024 | 1016 | 1009 | 1001 | 1457.7 | 1430.9 | 1404.2 | 1377.6
x2 = 0.8002 | 964 | 956 | 947 | 939 | 1364.5 | 1336.1 | 1307.8 | 1279.7
x2 = 0.8999 | 892 | 883 | 874 | 865 | 1265.5 | 1234.9 | 1204.5 | 1174.5

OCC(O)CO [glycerol] + O
Conditions | mass density, 283.15 K [kg/m3] | mass density, 293.15 K [kg/m3] | mass density, 303.15 K [kg/m3] | mass density, 313.15 K [kg/m3] | speed of sound, 283.15 K [m/s] | speed of sound, 293.15 K [m/s] | speed of sound, 303.15 K [m/s] | speed of sound, 313.15 K [m/s]
x2 = 0 | 1267 | 1261 | 1255 | 1248 | 1942.3 | 1922.9 | 1901 | 1879.3
x2 = 0.1003 | 1261 | 1255 | 1249 | 1243 | 1951.7 | 1922 | 1897.9 | 1875.7
x2 = 0.1998 | 1254 | 1248 | 1242 | 1236 | 1940.9 | 1915.6 | 1893.3 | 1871.9
x2 = 0.3014 | 1246 | 1240 | 1234 | 1228 | 1931.5 | 1909 | 1888 | 1867.3
x2 = 0.4042 | 1236 | 1230 | 1224 | 1218 | 1919.2 | 1899.3 | 1879.7 | 1859.8
x2 = 0.5011 | 1224 | 1218 | 1212 | 1205 | 1903.7 | 1886 | 1867.9 | 1849.3
x2 = 0.6011 | 1206 | 1201 | 1194 | 1188 | 1879.7 | 1864.7 | 1848.8 | 1832
x2 = 0.7003 | 1183 | 1177 | 1172 | 1166 | 1841.6 | 1830.6 | 1818.2 | 1804.5
x2 = 0.7999 | 1148 | 1143 | 1137 | 1131 | 1772.9 | 1769.3 | 1763.5 | 1755.4
x2 = 0.9024 | 1091 | 1087 | 1083 | 1078 | 1648.7 | 1659.3 | 1665.8 | 1668.4

Reference: the NIST ThermoML archive (doi:10.1016/j.jct.2017.01.011)
